Assay results taken from the supplement of paper PMC11061612.

How the values were obtained:
[1] = tested on: OVTOKO (Ovarian Carcinoma); experiment: combination Emax (second highest fraction inhibited in the dose matrix, 72 h); higher = more inhibition; extreme values may be limits of the assay
In short: (§1)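 Bliss excess equals the observed combination effect minus the expected value EA + EB − EA·EB, where EA and EB are the effects of each agent alone. Combination Emax is the second-highest inhibition within the matrix. Inhibition was scaled from CellTiter-Glo 2.0 luminescence, with 0 set by vehicle wells and 1 by blank wells, after 72 hours of two-drug dosing of cells plated in 1536-well plates.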

[2] = tested on: Becker (Low Grade Glioma); experiment: as above
In short: as §1

[3] = tested on: LAMA-84 (Chronic Myelogenous Leukemia); experiment: as above
In short: as §1

[4] = tested on: Caov-3 (Ovarian Carcinoma); experiment: as above
In short: as §1

[5] = tested on: PC-14 (Lung Adenocarcinoma); experiment: as above
In short: as §1

[6] = tested on: NCI-H1155 (Non-Small Cell Lung Carcinoma); experiment: as above
In short: as §1

[7] = tested on: HuO-3N1 (Osteosarcoma); experiment: as above
In short: as §1

[8] = tested on: AsPC-1 (Pancreatic Carcinoma); experiment: as above
In short: as §1

[9] = tested on: CML-T1 (Chronic Myelogenous Leukemia); experiment: as above
In short: as §1

[10] = tested on: KYSE-70 (Esophageal Squamous Cell Carcinoma); experiment: as above
In short: as §1

[11] = tested on: RPMI-8866 (Chronic Myelogenous Leukemia); experiment: as above
In short: as §1

[12] = tested on: SJRH30 (Rhabdomyosarcoma); experiment: as above
In short: as §1

[13] = tested on: PANC-02-03 (Pancreatic Carcinoma); experiment: as above
In short: as §1

[14] = tested on: RT4 (Bladder Carcinoma); experiment: as above
In short: as §1

[15] = tested on: SW684 (Other Solid Carcinomas); experiment: as above
In short: as §1

[16] = tested on: OV-90 (Ovarian Carcinoma); experiment: as above
In short: as §1

[17] = tested on: RMG-I (Ovarian Carcinoma); experiment: as above
In short: as §1

[18] = tested on: RL95-2 (Endometrial Carcinoma); experiment: as above
In short: as §1

[19] = tested on: OCI-AML5 (Acute Myeloid Leukemia); experiment: Bliss excess, mean over the matrix (fraction); higher = more synergy
In short: as §1

[20] = tested on: EB-3 (Burkitt's Lymphoma); experiment: as above
In short: as §1

SMILES	combination Emax [1]	combination Emax [2]	combination Emax [3]	combination Emax [4]	combination Emax [5]	combination Emax [6]	combination Emax [7]	combination Emax [8]	combination Emax [9]	combination Emax [10]	combination Emax [11]	combination Emax [12]	combination Emax [13]	combination Emax [14]	combination Emax [15]	combination Emax [16]	combination Emax [17]	combination Emax [18]	Bliss excess [19]	Bliss excess [20]
CN(C)CCCOc1ccc(-c2ccc3ncc4c(c3c2)n(C2CCOCC2)c(=O)n4C)cn1 [AZD0156] + C=CCn1c(=O)c2cnc(Nc3ccc(N4CCN(C)CC4)cc3)nc2n1-c1cccc(C(C)(C)O)n1 [AZD1775] (first compound max 1 µM, partner max 1 µM)	0.542	0.177	0.942	0.65	0.866	0.342	0.183	0.317	0.917	0.538	0.965	0.809	0.672	0.314	0.107	0.454	0.291	0.429	-0.0359	-0.0289
CCc1c2c(nc3ccc(O)cc13)-c1cc3c(c(=O)n1C2)COC(=O)[C@]3(O)CC [SN-38] + CN(C)CCCOc1ccc(-c2ccc3ncc4c(c3c2)n(C2CCOCC2)c(=O)n4C)cn1 [AZD0156] (first compound max 0.3 µM, 7x7, partner max 1 µM)	0.194	0.847	0.94	0.977	0.592	0.962	0.567	0.135	1	0.25	0.982	0.359	0.693	0.819	0.462	0.457	0.446	0.424	-0.0231	-0.0659
Cc1cc2ncnn2cc1Nc1ncc2c(n1)n(C1CCOCC1)c(=O)n2C [AZD7648] + O=C(c1cc(Cc2n[nH]c(=O)c3ccccc23)ccc1F)N1CCN(C(=O)C2CC2)CC1 [Olaparib] (first compound max 10 µM, 7x7, partner max 10 µM)	0.186	0.12	0.17	0.28	0.241	0.293	0.233	0.0586	0.71	0.124	0.594	0.0648	0.147	0.28	0.154	0.238	0.192	0.264	0.0077	-0.0401
CC1(C)CCC(CN2CCN(c3ccc(C(=O)NS(=O)(=O)c4ccc(NCC5CCOCC5)c([N+](=O)[O-])c4)c(Oc4cnc5[nH]ccc5c4)c3)CC2)=C(c2ccc(Cl)cc2)C1 [Venetoclax] + Cc1cc2ncnn2cc1Nc1ncc2c(n1)n(C1CCOCC1)c(=O)n2C [AZD7648] (first compound max 1 µM, 7x7, partner max 10 µM)	0.381	0.19	0.299	0.528	0.293	0.164	0.228	0.246	0.93	0.169	0.316	0.187	0.208	0.357	0.273	0.298	0.312	0.194	-0.0238	-0.0225
COc1cccc(OCCCN)c1-c1cc(Nc2cnc(C#N)cn2)n[nH]1 [Prexasertib] + CCc1c2c(nc3ccc(O)cc13)-c1cc3c(c(=O)n1C2)COC(=O)[C@]3(O)CC [SN-38] (first compound max 1 µM, 7x7, partner max 0.3 µM)	0.532	0.816	1	0.984	0.894	0.993	0.808	0.41	1	0.869	1	0.984	0.756	0.894	0.642	0.573	0.505	0.979	-0.0197	-0.0404
COc1cc2c(cc1OCCCCCOc1cc3c(cc1OC)C(=O)N1C=C(C)C[C@H]1C=N3)N=C[C@@H]1CC(C)=CN1C2=O [SG3199] + O=C(c1cc(Cc2n[nH]c(=O)c3ccccc23)ccc1F)N1CCN(C(=O)C2CC2)CC1 [Olaparib] (first compound max 0.001 µM, 7x7, partner max 10 µM)	0.111	0.0512	0.226	0.202	0.179	0.263	0.219	0.02	0.738	0.0678	0.263	0.122	0.0277	0.169	0.0316	0.098	0.114	0.264	0.0232	-0.0509
